Experimental data: ChEMBL document CHEMBL1150727, “New cytotoxic aristolactams from Pararistolochia flos-avis” (1987)
Values after ≈ are worked out from the molar mass of the structure shown. Active and inactive are the calls of the source. The calls are words filed in the database; no cut-off is given here.

What was measured:
P388 = assay: Cytotoxicity against mouse P388 cells; type: functional
KB = assay: Cytotoxicity against human KB cells; type: functional
[1] = read-out: ED50 (the source's name)

| Structure (SMILES) | EC50 (P388; [1]) [µg/mL] | EC50 (KB; [1]) [µg/mL] | Activity (P388) | Activity (KB) |
| --- | --- | --- | --- | --- |
| COc1c(O)cc2c3c(cc4ccccc4c13)NC2=O [ARISTOLACTAM AII] | 3.2 (≈ 12.1 µM) | 2.1 (≈ 7.92 µM) | – | – |
| COc1cccc2c1cc1c3c(cc4c(c32)OCO4)C(=O)N1 | – | – | inactive | inactive |
| COc1cc2c3c(cc4ccccc4c3c1O)NC2=O | – | – | inactive | inactive |
| COc1c(O)c(OC)c2c3c(cc4ccccc42)NC(=O)c13 | – | – | inactive | inactive |
